Patent US11957684B2, “Treatment of heavy menstrual bleeding associated with uterine fibroids” (Sumitomo Pharma Switzerland GmbH, priority 2016, dated 2024)
Where “and” joins values, the source holds several entries; their conditions need not be identical. Equal values may be shown once. Read-outs that look alike come from different tables or passages of the source.

System: endometriosis-associated pain
Assay type: in vivo, human
Description: Subjects assessed and recorded their own quality of life (QOL) using the EHP-30 once a month during the study visit. As used in the examples, the VAS score was evaluated using a 100 mm scale. For pain intensity, the scale was anchored by “no pain” (score of 0) and “pain as bad as you can imagine” (score of 100). […] The above items were evaluated using a patient diary that was distributed by the sponsor. Subjects filled out the patient diary every day during the treatment period or until early termination. If taking prohibited analgesics, subjects recorded this fact in the patient diary along with the accompanying pain symptoms before use of analgesics. As used in the examples, pain during menstruation and pelvic pain unrelated to menstruation were evaluated using scores on the M-B&B and B&B. The M-B&B scores were recorded by subjects on the patient diary supplied by the sponsor. Subjects filled out the patient diary every day during the treatment period or until early termination. If taking prohibited analgesics, subjects recorded this fact in the patient diary along with the accompanying pain symptoms before use of analgesics. The investigator or subinvestigator assessed each patient's pain through interviews and filled out a B&B once a month. The items that were assessed are shown below. The M-B&B score included: dysmenorrhea (severe, moderate, mild, no pain, or no menstruation); pelvic pain (severe, moderate, mild, or no pain); deep dyspareunia (severe, moderate, mild, no pain, or no intercourse). The B&B score included: dysmenorrhea (severe, moderate, mild, none, or not applicable); dyspareunia (severe, moderate, mild, none, or not applicable); pelvic pain (severe, moderate, mild, or none); pelvic tenderness (severe, moderate, mild, or none); and induration (severe, moderate, mild, or none). As used in the examples, the EHP-30 score was obtained by subjects assessing and recording their own QOL using the EHP-30 questionnaire.

With `CONC(=O)Nc1ccc(-c2sc3c(c2CN(C)C)c(=O)n(-c2ccc(OC)nn2)c(=O)n3Cc2c(F)cccc2F)cc1` [Compound 1, N-(4-(1-(2,6-difluorobenzyl)-5-((dimethylamino)methyl)-3-(6-methoxy-3-pyridazinyl)-2,4-dioxo-1,2,3,4-tetrahydrothieno[2,3-d]pyrimidin-6-yl)phenyl)-N′-methoxyurea] the “change from baseline in mean VAS, dysmenorrhea” value (10 mg, Day 1-28) was −10.657±17.0824 mm, the “change from baseline in mean VAS, dyspareunia” value (10 mg, Day 1-28) was 1.642±10.6212 mm and the “change from baseline in mean VAS, pelvic pain” value (10 mg, Day 1-28) was −4.606±7.1304 mm. The “mean VAS score, dysmenorrhea” value (10 mg, Day 1-28) was 17.556±17.0427 mm, the “mean VAS score, dyspareunia” value (10 mg, Day 1-28) was 9.608±15.4027 mm and the “mean VAS score, pelvic pain” value (10 mg, Day 1-28) was 9.988±10.3249 mm. The “change from baseline in mean VAS, dysmenorrhea” value (10 mg, Day 57-84) was −14.747±16.8648 mm, the “change from baseline in mean VAS, dyspareunia” value (10 mg, Day 57-84) was −1.033±12.2047 mm and the “change from baseline in mean VAS, pelvic pain” value (10 mg, Day 57-84) was −6.282±9.1659 mm. The “mean VAS score, dysmenorrhea” value (10 mg, Day 57-84) was 13.568±15.5954 mm, the “mean VAS score, dyspareunia” value (10 mg, Day 57-84) was 10.110±18.5404 mm and the “mean VAS score, pelvic pain” value (10 mg, Day 57-84) was 8.400±10.1329 mm. For the same compound, the “change from baseline in mean VAS, dysmenorrhea” value (10 mg, Day 141-168) was −15.191±17.6754 mm, the “change from baseline in mean VAS, dyspareunia” value (10 mg, Day 141-168) was −4.124±10.5641 mm and the “change from baseline in mean VAS, pelvic pain” value (10 mg, Day 141-168) was −7.872±11.2457 mm. The “mean VAS score, dysmenorrhea” value (10 mg, Day 141-168) was 11.758±15.4431 mm, the “mean VAS score, dyspareunia” value (10 mg, Day 141-168) was 5.550±11.1157 mm and the “mean VAS score, pelvic pain” value (10 mg, Day 141-168) was 6.861±9.2099 mm. For the same compound, the “change from baseline in EHP-30, control & powerlessness” value (10 mg, Week 24) was −13.97±17.502, the “change from baseline in EHP-30, emotional well-being” value (10 mg, Week 24) was −8.38±15.918 and the “change from baseline in EHP-30, pain” value (10 mg, Week 24) was −16.98±20.286. The “change from baseline in EHP-30, social support” value (10 mg, Week 24) was −7.52±10.840, the “change from baseline in mean B&B score, dysmenorrhea” value (10 mg, Week 24) was −1.0±0.87 and the “change from baseline in mean B&B score, dyspareunia” value (10 mg, Week 24) was −0.3±0.67. For the same compound, the “change from baseline in mean B&B score, pelvic pain” value (10 mg, Week 24) was −0.8±0.79, the “change from baseline in mean B&B score, pelvic tenderness” value (10 mg, Week 24) was −0.7±0.83 and the “subjects without pain in B&B score, dysmenorrhea” value (10 mg, Week 24) was 27.8%. For the same compound, the “subjects without pain in B&B score, dyspareunia” value (10 mg, Week 24) was 63.9%, the “subjects without pain in B&B score, pelvic pain” value (10 mg, Week 24) was 30.4% and the “subjects without pain in B&B score, pelvic tenderness” value (10 mg, Week 24) was 35.4%. The “change from baseline in maximum M-B&B score, dysmenorrhea” value (10 mg, end of treatment) was −0.7±1.01, the “change from baseline in maximum M-B&B score, dyspareunia” value (10 mg, end of treatment) was −0.2±0.69 and the “change from baseline in maximum M-B&B score, pelvic pain” value (10 mg, end of treatment) was −0.7±0.94. For the same compound, the “change from baseline in maximum VAS, dysmenorrhea” value (10 mg, end of treatment) was −26.4±27.37 mm, the “change from baseline in maximum VAS, dyspareunia” value (10 mg, end of treatment) was −4.2±16.30 mm and the “change from baseline in maximum VAS, pelvic pain” value (10 mg, end of treatment) was −24.0±27.54 mm. The “change from baseline in mean M-B&B score, deep dyspareunia” value (10 mg, end of treatment) was −0.171±0.4683, the “change from baseline in mean M-B&B score, dysmenorrhea” value (10 mg, end of treatment) was −0.509±0.6675 and the “change from baseline in mean M-B&B score, pelvic pain” value (10 mg, end of treatment) was −0.260±0.3624. For the same compound, the “change from baseline in mean VAS, dysmenorrhea” value (10 mg, end of treatment) was −15.356±18.0506 mm, the “change from baseline in mean VAS, dyspareunia” value (10 mg, end of treatment) was −3.454±10.8509 mm and the “change from baseline in mean VAS, pelvic pain” value (10 mg, end of treatment) was −6.849 mm and −6.849±10.5616 mm. The “change from baseline in mean score of amount of bleeding (0 to 5)” value (10 mg, end of treatment) was −0.529±1.2185, the “change from baseline in proportion of days with usage of pain killer” value (10 mg, end of treatment) was −6.32±9.817% and the “change in proportion of days without pain (M-B&B), deep dyspareunia” value (10 mg, end of treatment) was 8.32±35.972%. For the same compound, the “change in proportion of days without pain (M-B&B), dysmenorrhea” value (10 mg, end of treatment) was 29.55±42.700%, the “change in proportion of days without pain (M-B&B), pelvic pain” value (10 mg, end of treatment) was 17.18±26.101% and the “change in proportion of days without pain (VAS), dysmenorrhea” value (10 mg, end of treatment) was 29.28±43.277%. For the same compound, the “change in proportion of days without pain (VAS), dyspareunia” value (10 mg, end of treatment) was 9.72±38.401%, the “change in proportion of days without pain (VAS), pelvic pain” value (10 mg, end of treatment) was 17.90±24.924% and the “mean VAS score, dyspareunia” value (10 mg, end of treatment) was 6.218±10.6280 mm. For the same compound, the “mean VAS score, pelvic pain” value (10 mg, end of treatment) was 7.746±9.0900 mm, the “subjects who achieved amenorrhea” value (10 mg, end of treatment) was 22.3% and the “subjects without pain in M-B&B score, dysmenorrhea” value (10 mg, end of treatment) was 27.2%. The “subjects without pain in M-B&B score, dyspareunia” value (10 mg, end of treatment) was 56.0%, the “subjects without pain in M-B&B score, pelvic pain” value (10 mg, end of treatment) was 24.3% and the “subjects without pain in VAS score, dysmenorrhea” value (10 mg, end of treatment) was 27.2%. The “subjects without pain in VAS score, dyspareunia” value (10 mg, end of treatment) was 48.0%, the “subjects without pain in VAS score, pelvic pain” value (10 mg, end of treatment) was 6.8% and 7% and the “change from baseline in mean VAS, dysmenorrhea” value (20 mg, Day 1-28) was −9.158±16.6375 mm. The “change from baseline in mean VAS, pelvic pain” value (20 mg, Day 1-28) was −3.962±6.6751 mm, the “mean VAS score, dysmenorrhea” value (20 mg, Day 1-28) was 18.545±19.2141 mm and the “mean VAS score, dyspareunia” value (20 mg, Day 1-28) was 10.809±15.5738 mm. The “mean VAS score, pelvic pain” value (20 mg, Day 1-28) was 11.627±14.7324 mm, the “change from baseline in mean VAS, dysmenorrhea” value (20 mg, Day 57-84) was −20.689±21.4387 mm and the “change from baseline in mean VAS, dyspareunia” value (20 mg, Day 57-84) was −0.191±10.6032 mm. The “change from baseline in mean VAS, pelvic pain” value (20 mg, Day 57-84) was −8.547±13.8568 mm, the “mean VAS score, dysmenorrhea” value (20 mg, Day 57-84) was 6.626±13.5146 mm and the “mean VAS score, dyspareunia” value (20 mg, Day 57-84) was 9.229±16.6530 mm. The “mean VAS score, pelvic pain” value (20 mg, Day 57-84) was 6.675±10.8072 mm, the “change from baseline in mean VAS, dysmenorrhea” value (20 mg, Day 141-168) was −19.860±19.1617 mm and the “change from baseline in mean VAS, dyspareunia” value (20 mg, Day 141-168) was −4.012±12.5050 mm. The “change from baseline in mean VAS, pelvic pain” value (20 mg, Day 141-168) was −8.678±10.6479 mm, the “mean VAS score, dysmenorrhea” value (20 mg, Day 141-168) was 6.132±13.2012 mm and the “mean VAS score, dyspareunia” value (20 mg, Day 141-168) was 3.806±8.9781 mm. The “mean VAS score, pelvic pain” value (20 mg, Day 141-168) was 5.486±9.1562 mm, the “change from baseline in EHP-30, Self-image” value (20 mg, Week 24) was −10.59±15.256 and the “change from baseline in EHP-30, control & powerlessness” value (20 mg, Week 24) was −20.04±21.880. The “change from baseline in EHP-30, emotional well-being” value (20 mg, Week 24) was −15.37±17.858, the “change from baseline in EHP-30, pain” value (20 mg, Week 24) was −20.58±19.650 and the “change from baseline in EHP-30, social support” value (20 mg, Week 24) was −13.44±17.055. For the same compound, the “change from baseline in mean B&B score, dysmenorrhea” value (20 mg, Week 24) was −1.5±0.94, the “change from baseline in mean B&B score, dyspareunia” value (20 mg, Week 24) was −0.4±0.70 and the “change from baseline in mean B&B score, pelvic pain” value (20 mg, Week 24) was −0.9±0.85. The “change from baseline in mean B&B score, pelvic tenderness” value (20 mg, Week 24) was −0.8±0.79, the “subjects without pain in B&B score, dysmenorrhea” value (20 mg, Week 24) was 64.9% and the “subjects without pain in B&B score, dyspareunia” value (20 mg, Week 24) was 53.6%. For the same compound, the “subjects without pain in B&B score, pelvic pain” value (20 mg, Week 24) was 39.2%, the “subjects without pain in B&B score, pelvic tenderness” value (20 mg, Week 24) was 37.8% and the “change from baseline in maximum M-B&B score, dysmenorrhea” value (20 mg, end of treatment) was −1.4±1.12. The “change from baseline in maximum M-B&B score, dyspareunia” value (20 mg, end of treatment) was −0.3±0.59, the “change from baseline in maximum M-B&B score, pelvic pain” value (20 mg, end of treatment) was −0.7±0.79 and the “change from baseline in maximum VAS, dyspareunia” value (20 mg, end of treatment) was −7.0±15.29 mm.
